Measurements from US20240382401A1, “COMPOSITIONS” (JVS Products Limited, priority 2020, published 2024).

Tested on: tissue engineered human skin model (EpiDerm™)
Assay: In vitro skin irritation test, EpiDerm (EPI-200-SIT), MTT assay
Format: cell-based
Settings: 60 minutes exposure, relative to negative control, irritant if below 50%
Method: A 24 tissue insert EpiDerm™ skin irritation kit was purchased from MatTek In Vitro Life Science Laboratories, Slovakia (EPI-200-SIT). On receipt of the kit, the tissues were visually assessed for integrity and conditioned by transferring into sterile 6 well plates, adding 0.9 ml medium and incubating for 60 minutes at 37° C., 5% CO2, 95% RH. After 60 minutes, the tissues were removed, placed in fresh medium and further incubated for 18 hours.
To test for irritancy potential, 30 μl of liquid formulation, plus positive and negative control or 25 mg semisolid (gel/moisturiser) were applied to surface of each test tissue insert. After dosing the inserts were incubated for 35 minutes (37° C., 5% CO2, 95% RH). […]
Once extraction was complete, 200 μl samples from each tissue were added to a 96 well plate in duplicate for the MTT assay of cell viability, and 200 μl isopropanol to 4 wells as blanks. The optical density of each well was read using a spectrophotometric plate reader at 570 nm without using a reference filter.
The mean OD (optical density) from the blank wells was subtracted from the OD of each well. The mean OD from each duplicate was then obtained and the individual relative tissue viability for each tissue treated with a test substance (TS), the positive control (PC) and the negative control (NC) calculated according to the following formulas: […]

CCCCCCCCCCCCOS(=O)(=O)[O-].[Na+] [5% SDS]
Mean RV % (relative viability): 9.0%
